Measurements from the supplement of paper PMC10307832.

What was measured:
Experiment in all cases: relative viability (nuclei count vs DMSO), 5 days (fraction); higher = more cells survive
NCI-H2347 = system: NCI-H2347
Summary of the method: (§1)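 Relative viability was taken as the ratio of nuclei in treated wells to nuclei in vehicle wells. Lung cancer cell lines in 1536-well plates received compounds by pin tool one day after seeding, either one drug alone or a fixed anchor-drug dose plus five library-drug doses (not always all listed) in √10 steps. Nuclei were counted on 4× images after 5 days of treatment, and values are medians of duplicate plates.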

NCI-H661 = system: NCI-H661
Summary of the method: as §1

NCI-H596 = system: NCI-H596
Summary of the method: as §1

SK-MES-1 = system: SK-MES-1
Summary of the method: as §1

NCI-H1651 = system: NCI-H1651
Summary of the method: as §1

NCI-H1563 = system: NCI-H1563
Summary of the method: as §1

NCI-H1755 = system: NCI-H1755
Summary of the method: as §1

RERF-LC-KJ = system: RERF-LC-KJ
Summary of the method: as §1

PC-14 = system: PC-14
Summary of the method: as §1

NCI-H1915 = system: NCI-H1915
Summary of the method: as §1

NCI-H1355 = system: NCI-H1355
Summary of the method: as §1

NCI-H520 = system: NCI-H520
Summary of the method: as §1

NCI-H3122 = system: NCI-H3122
Summary of the method: as §1

NCI-H727 = system: NCI-H727
Summary of the method: as §1

LXF-289 = system: LXF-289
Summary of the method: as §1

NCI-H460 = system: NCI-H460
Summary of the method: as §1

NCI-H1792 = system: NCI-H1792
Summary of the method: as §1

NCI-H322M = system: NCI-H322M
Summary of the method: as §1

With `COc1cc2nccc(Oc3ccc(NC(=O)Nc4cc(C)on4)c(Cl)c3)c2cc1OC` [Tivozanib] + CS(=O)(=O)CCNCc1ccc(-c2ccc3ncnc(Nc4ccc(OCc5cccc(F)c5)c(Cl)c4)c3c2)o1 [Lapatinib] (partner 2 µM) the relative viability (NCI-H2347; first compound 0.005 µM) was 0.881, the relative viability (NCI-H2347; first compound 0.01581 µM) was 0.93 and the relative viability (NCI-H2347; first compound 0.05 µM) was 0.963. It also gave a relative viability (NCI-H2347; first compound 0.1581 µM) of 1.11, a relative viability (NCI-H2347; first compound 0.5 µM) of 0.907 and a relative viability (NCI-H661; first compound 0.005 µM) of 0.436. For the same compound, the relative viability (NCI-H661; first compound 0.01581 µM) was 0.495, the relative viability (NCI-H661; first compound 0.05 µM) was 0.46 and the relative viability (NCI-H661; first compound 0.1581 µM) was 0.496. The relative viability (NCI-H661; first compound 0.5 µM) was 0.553, the relative viability (NCI-H596; first compound 0.005 µM) was 0.998 and the relative viability (NCI-H596; first compound 0.01581 µM) was 1.04. The relative viability (NCI-H596; first compound 0.05 µM) was 1.04, the relative viability (NCI-H596; first compound 0.1581 µM) was 1.04 and the relative viability (NCI-H596; first compound 0.5 µM) was 1.08. It also gave a relative viability (SK-MES-1; first compound 0.005 µM) of 0.421, a relative viability (SK-MES-1; first compound 0.01581 µM) of 0.446 and a relative viability (SK-MES-1; first compound 0.05 µM) of 0.5. For the same compound, the relative viability (SK-MES-1; first compound 0.1581 µM) was 0.437, the relative viability (SK-MES-1; first compound 0.5 µM) was 0.509 and the relative viability (NCI-H1651; first compound 0.005 µM) was 0.744. For the same compound, the relative viability (NCI-H1651; first compound 0.01581 µM) was 0.864, the relative viability (NCI-H1651; first compound 0.05 µM) was 0.863 and the relative viability (NCI-H1651; first compound 0.1581 µM) was 0.653. It also gave a relative viability (NCI-H1651; first compound 0.5 µM) of 0.634, a relative viability (NCI-H1563; first compound 0.005 µM) of 0.848 and a relative viability (NCI-H1563; first compound 0.01581 µM) of 0.985. For the same compound, the relative viability (NCI-H1563; first compound 0.05 µM) was 0.938, the relative viability (NCI-H1563; first compound 0.1581 µM) was 0.856 and the relative viability (NCI-H1563; first compound 0.5 µM) was 0.796. It also gave a relative viability (NCI-H1755; first compound 0.005 µM) of 0.945, a relative viability (NCI-H1755; first compound 0.01581 µM) of 0.991 and a relative viability (NCI-H1755; first compound 0.05 µM) of 1.03. For the same compound, the relative viability (NCI-H1755; first compound 0.1581 µM) was 1.02, the relative viability (NCI-H1755; first compound 0.5 µM) was 1.02 and the relative viability (RERF-LC-KJ; first compound 0.005 µM) was 0.816. It also gave a relative viability (RERF-LC-KJ; first compound 0.01581 µM) of 0.843, a relative viability (RERF-LC-KJ; first compound 0.05 µM) of 0.902 and a relative viability (RERF-LC-KJ; first compound 0.1581 µM) of 0.819. The relative viability (RERF-LC-KJ; first compound 0.5 µM) was 0.834, the relative viability (PC-14; first compound 0.005 µM) was 0.245 and the relative viability (PC-14; first compound 0.01581 µM) was 0.325. For the same compound, the relative viability (PC-14; first compound 0.05 µM) was 0.308, the relative viability (PC-14; first compound 0.1581 µM) was 0.255 and the relative viability (PC-14; first compound 0.5 µM) was 0.332. For the same compound, the relative viability (NCI-H1915; first compound 0.005 µM) was 0.992, the relative viability (NCI-H1915; first compound 0.01581 µM) was 0.928 and the relative viability (NCI-H1915; first compound 0.05 µM) was 0.946. It also gave a relative viability (NCI-H1915; first compound 0.1581 µM) of 0.965, a relative viability (NCI-H1915; first compound 0.5 µM) of 0.882 and a relative viability (NCI-H1355; first compound 0.005 µM) of 0.894. The relative viability (NCI-H1355; first compound 0.01581 µM) was 0.941, the relative viability (NCI-H1355; first compound 0.05 µM) was 1 and the relative viability (NCI-H1355; first compound 0.5 µM) was 0.92. It also gave a relative viability (NCI-H520; first compound 0.005 µM) of 0.763, a relative viability (NCI-H520; first compound 0.01581 µM) of 0.912 and a relative viability (NCI-H520; first compound 0.05 µM) of 0.87. The relative viability (NCI-H520; first compound 0.1581 µM) was 0.82, the relative viability (NCI-H520; first compound 0.5 µM) was 0.757 and the relative viability (NCI-H3122; first compound 0.005 µM) was 0.972. The relative viability (NCI-H3122; first compound 0.01581 µM) was 0.979, the relative viability (NCI-H3122; first compound 0.05 µM) was 0.989 and the relative viability (NCI-H3122; first compound 0.1581 µM) was 1.16. For the same compound, the relative viability (NCI-H3122; first compound 0.5 µM) was 1.03, the relative viability (NCI-H727; first compound 0.005 µM) was 0.676 and the relative viability (NCI-H727; first compound 0.01581 µM) was 0.901. The relative viability (NCI-H727; first compound 0.05 µM) was 0.957, the relative viability (NCI-H727; first compound 0.5 µM) was 0.787 and the relative viability (LXF-289; first compound 0.005 µM) was 0.888. For the same compound, the relative viability (LXF-289; first compound 0.01581 µM) was 0.886, the relative viability (LXF-289; first compound 0.05 µM) was 0.902 and the relative viability (LXF-289; first compound 0.1581 µM) was 0.946. For the same compound, the relative viability (LXF-289; first compound 0.5 µM) was 0.905, the relative viability (NCI-H460; first compound 0.005 µM) was 0.889 and the relative viability (NCI-H460; first compound 0.01581 µM) was 1. The relative viability (NCI-H460; first compound 0.05 µM) was 0.979, the relative viability (NCI-H460; first compound 0.1581 µM) was 1.12 and the relative viability (NCI-H460; first compound 0.5 µM) was 0.948. For the same compound, the relative viability (NCI-H1792; first compound 0.005 µM) was 0.901, the relative viability (NCI-H1792; first compound 0.01581 µM) was 0.925 and the relative viability (NCI-H1792; first compound 0.05 µM) was 0.922. For the same compound, the relative viability (NCI-H1792; first compound 0.1581 µM) was 0.841, the relative viability (NCI-H1792; first compound 0.5 µM) was 1.01 and the relative viability (NCI-H322M; first compound 0.005 µM) was 0.574. The relative viability (NCI-H322M; first compound 0.01581 µM) was 0.649, the relative viability (NCI-H322M; first compound 0.05 µM) was 0.615 and the relative viability (NCI-H322M; first compound 0.1581 µM) was 0.525. It also gave a relative viability (NCI-H322M; first compound 0.5 µM) of 0.65.
